Active and inactive are the calls of the source. The rule behind the calls is not given here.
Experiments:
KOPN-8 = assay: Antiproliferative activity against human KOPN-8 cells assessed as reduction in cell viability incubated for 72 hrs by resazurin dye based assay; assay type: functional; settings: KOPN-8, 72 h
ML-2 = assay: Antiproliferative activity against human ML-2 cells assessed as reduction in cell viability incubated for 72 hrs by resazurin dye based assay; assay type: functional; settings: ML-2, 72 h
RS4-11 [1] = assay: Induction of cell cycle arrest in human RS4-11 cells assessed as accumulation of cells in G2/M phase measured after 48 hrs by PI staining based flow cytometry analysis; assay type: functional; settings: dose 1.25-10 µM, DDE = dose-dependent effect
K562 = assay: Antiproliferative activity against human K562 cells assessed as reduction in cell viability incubated for 72 hrs by resazurin dye based assay; assay type: functional; settings: K562, 72 h
CCRF-CEM = assay: Antiproliferative activity against human CEM cells assessed as reduction in cell viability incubated for 72 hrs by resazurin dye based assay; assay type: functional
RS4-11 [2] = assay: Downregulation of HOXA9 protein expression in human RS4-11 cells at 5 to 20 uM measured after 24 hrs by Western blot analysis; assay type: functional, cell-based; settings: dose 5-20 µM
RS4-11 [3] = assay: Antiproliferative activity against human RS4-11 cells assessed as reduction in cell viability incubated for 72 hrs by resazurin dye based assay; assay type: functional; settings: RS4-11, 72 h
RS4-11 [4] = assay: Induction of cell cycle arrest in human RS4-11 cells assessed as accumulation of cells in G2/M phase at 1.25 to 10 uM measured after 72 hrs by PI staining based flow cytometry analysis; assay type: functional; settings: dose 1.25-10 µM
MV4-11 = assay: Antiproliferative activity against human MV4-11 cells assessed as reduction in cell viability incubated for 72 hrs by resazurin dye based assay; assay type: functional; settings: MV4-11, 72 h
RS4-11 [5] = assay: Downregulation of MEIS1 protein expression in human RS4-11 cells at 5 to 20 uM measured after 24 hrs by Western blot analysis; assay type: functional, cell-based; settings: dose 5-20 µM
RS4-11 [6] = assay: Induction of cell cycle arrest in human RS4-11 cells assessed as accumulation of cells in subG1 phase at 1.25 to 10 uM measured after 72 hrs by PI staining based flow cytometry analysis; assay type: functional; settings: dose 1.25-10 µM

Row | IC50 (K562) | IC50 (CCRF-CEM) | IC50 (RS4-11 [3]) | IC50 (MV4-11) | Compound | IC50 (KOPN-8) | IC50 (ML-2) | Activity (RS4-11 [1]) | Activity (RS4-11 [2]) | Activity (RS4-11 [4]) | Activity (RS4-11 [5]) | Activity (RS4-11 [6])
1 | 2.1 µM | 6.7 µM | 1000 nM | 1.6 µM | COc1ccc(-c2nc3c(c(-c4ccccc4)nn3-c3ccccc3)c(-c3ccc(O)cc3)c2C#N)cc1 | 200 nM | 400 nM | Dde | Active | Active | Active | Active
2 | 11.6 µM | > 25 µM | – | 34.2 µM | N#Cc1c(-c2cccs2)nc2c(c(-c3ccccc3)nn2-c2ccccc2)c1-c1ccc(O)cc1 | – | – | – | – | – | – | –

— ChEMBL document CHEMBL5131391, “One-pot three-component synthesis of novel pyrazolo[3,4-b]pyridines as potent antileukemic agents” (Eur J Med Chem, 2022)
